Earlier results, collected in patent US12502339B2, “Foam compositions” (The Procter & Gamble Company, priority 2021, dated 2025).

Details: in water

Structure (SMILES)	Water solubility at 20° C. (weight percent)
CCCC [Butane]	<0.01% weight percent
COC [Dimethyl ether]	7% weight percent
[He] [Helium]	<0.01 weight percent

More lines, now with the values ahead:

Water solubility at 20° C. (weight percent)	Structure (SMILES)
0.8% weight percent	O=C=O [Carbon dioxide]
<0.01% weight percent	CC(C)C [Isobutane]
0.12 weight percent	[N-]=[N+]=O [Nitrous oxide]
